Data from publication PMC8224697 (Marine Drugs, 2021).
Converted amounts (≈) assume the structure as drawn. “Also recorded” adds a separate entry of the source. Like-named read-outs stand apart in the source and are kept apart here.

Legend:
[1] = molecular target: T1, recombinant ICL cloned from C. albicans ATCC10231 (Candida albicans, UniProt Q9P8Q7); experiment: ICL inhibition assay (glyoxylate phenylhydrazone formation, A324 nm); type: biochemical; details: for IC50: purified recombinant ICL, n = 3
T1 construct: made in house
Experimental: The preparation of recombinant ICL cloned from C. albicans ATCC10231 was performed as described previously. The inhibitory activities of secoemestrin C (1), dethiosecoemestrin (2), emestrin (3), and emestrin B (4) against purified recombinant ICL were evaluated according to a previously documented procedure. The production of ICL-catalyzed glyoxylate phenylhydrazone from phenylhydrazine and isocitrate was measured using a spectrophotometer at an absorbance wavelength of 324 nm.
The preparation of the recombinant ICL protein from C. albicans ATCC10231 was performed as described in a previous paper. We used the two synthetic primers IC-1 (5′-[…]-3′) and IC-2 (5′-[…] […]-3′) to perform a PCR amplification of ICL. The ICL inhibitory activity of the test compounds were evaluated according to a previously described method. The ICL-catalyzed formation of glyoxylate phenylhydrazone from isocitrate and phenylhydrazine substrates was measured using a spectrophotometer at an absorbance wavelength of 324 nm. The inhibitory activity of the test compound was calculated relative to that of the DMSO control (n = 3). We used 3-nitropropionate as a positive control.

C. albicans ATCC10231 = experiment: microbe, parasite or virus in culture; type: cell-based, Candida albicans
From the text: (§1) The ICL gene was cloned from C. albicans strain ATCC10231 genomic DNA. C. albicans SC5314 (ATCC MYA-2876) (wild type), MRC10 (Δicl) (ICL-deletion mutant), MRC11 (Δicl + ICL) (ICL-complemented mutant), […], ATCC18804, and ATCC11006 were used for the growth assay. The ICL-deletion mutant strains MRC10 and MRC11 were kindly provided by Prof. Michael C. Lorenz (The University of Texas Health Science Center at Houston). Each strain was subcultured in YNB broth (Difco Laboratories, Detroit, MI, USA) supplemented with 2% glucose at 28 °C. For the ICL inhibitor addition, isolated compounds dissolved in DMSO were added to a final solvent concentration of 0.5% in all growth assays.
(§2) The antifungal activity of secoemestrin C (1), dethiosecoemestrin (2), emestrin (3), and emestrin B (4) was evaluated against C. albicans strains (SC5314, ATCC10231, ATCC10259, ATCC11006, and ATCC18804) using a previously documented procedure. The growth of C. albicans was monitored in YNB broth with glucose or potassium acetate as the carbon source. The plates were incubated at 28 °C for 3 days. […] Amphotericin B, an antifungal agent, was applied as a positive control.

C. albicans SC5314 = experiment: In vitro growth assay (MIC) in YNB broth; type: cell-based, Candida albicans; details: 28 °C
From the text: (§3) Following phagocytosis by macrophages, C. albicans undergoes a metabolic shift from glycolysis to the glyoxylate cycle, enabling cells to utilize C2 carbon sources. Therefore, we hypothesized that the ICL inhibitor reduces nutrient uptake capacity and impedes the survival of C. albicans within macrophages.
as §1, §2

C. albicans ATCC10259 = experiment: In vitro growth assay (MIC) in YNB broth; type: cell-based; details: Candida albicans, ATCC10259, 72 h, 28 °C
From the text: as §3, §1, §2

C. albicans ATCC11006 = experiment: In vitro growth assay (MIC) in YNB broth; type: cell-based; details: Candida albicans, ATCC11006, 72 h, 28 °C
From the text: as §3, §1, §2

C. albicans ATCC18804 = experiment: In vitro growth assay (MIC) in YNB broth; type: cell-based; details: Candida albicans, ATCC18804, 72 h, 28 °C
From the text: as §3, §1, §2

[2] = test system: C. albicans strains (SC5314, ATCC10231, ATCC10259, ATCC11006, and ATCC18804); experiment: In vitro growth assay (MIC), summary over the strain panel; type: cell-based; details: Candida albicans; C. albicans growing on acetate, over five strains
Experimental: as §3, §2

[3] = test system: C. albicans strains SC5314 (wild type), MRC10 (Δicl), and MRC11 (Δicl + ICL); experiment: Growth phenotype analysis on YNB agar plates; type: cell-based, Candida albicans; details: 2 days, 28 °C
Experimental: To determine the effects of secoemestrin C (1) on C. albicans growth under C2–assimilating conditions, phenotypic analyses of ICL-deletion mutants were also performed using C. albicans strains SC5314 (wild type), MRC10 (Δicl), and MRC11 (Δicl + ICL). After pre-culture, each strain was streaked onto YNB agar plates supplemented with glucose or potassium acetate with or without 64 μg/mL secoemestrin C (1).
Figure 3 Inhibitory activity of secoemestrin C (1) toward the growth and ICL mRNA expression of C. albicans. (a) C. albicans strains SC5314 (wild-type), MRC10 (Δicl), and MRC11 (Δicl + ICL) were cultured on YNB agar plates containing 2% glucose or 2% potassium acetate as a carbon source with or without 64 μg/mL secoemestrin C (1) for 2 days at 28 °C. […] ICL mRNA expression was analyzed by RT-PCR. Glyceraldehyde-3-phosphate dehydrogenase (GPDH), a housekeeping gene, was measured as a loading control.
(§4) Growth phenotype and ICL expression analysis were performed using C. albicans strains SC5314 (wild type), MRC10 (Δicl), and MRC11 (Δicl + ICL) according to a previously described method. […] Semi-quantitative RT-PCR was conducted using ICL-specific primers: 5′-[…]-3′ (forward) and 5′-TAGATTCAGCTTCA GCCATCAAAGC-3′ (reverse). The expression of the housekeeping gene glyceraldehyde-3-phosphate dehydrogenase (GPDH) was measured as a loading control.

[4] = test system: ICL mRNA expression in C. albicans; experiment: ICL mRNA expression by semi-quantitative RT-PCR; type: cell-based, Candida albicans; details: cells grown in 2% acetate with 16, 32, or 64 μg/mL compound; 4 h, 28 °C; SC5314 and MRC11
Experimental: Figure 3 Inhibitory activity of secoemestrin C (1) toward the growth and ICL mRNA expression of C. albicans. (a) C. albicans strains SC5314 (wild-type), MRC10 (Δicl), and MRC11 (Δicl + ICL) were cultured on YNB agar plates containing 2% glucose or 2% potassium acetate as a carbon source with or without 64 μg/mL secoemestrin C (1) for 2 days at 28 °C. (b) Strains were grown in YNB broth containing 2% glucose, collected by centrifugation, and transferred to YNB containing 2% glucose (Glu), 2% potassium acetate (Ace), or 2% Ace + secoemestrin C (1) (16, 32, or 64 μg/mL) and cultured for 4 h at 28 °C. ICL mRNA expression was analyzed by RT-PCR. Glyceraldehyde-3-phosphate dehydrogenase (GPDH), a housekeeping gene, was measured as a loading control.
We further investigated the effects of secoemestrin C (1) on ICL mRNA expression in C. albicans using a semi-quantitative reverse-transcription polymerase chain reaction (RT-PCR). […] GPDH expression was detected in all treatment conditions.
as §4, with “The expression of the housekeeping gene glyceraldehyde-3-phosphate dehydrogenase (GPDH) was measured as a loading control.” left out

[5] = Candida albicans, SC5314, 72 h, YNB with 2% glucose, read-out: MIC
[6] = Candida albicans, ATCC10231, Table 1: growth of C. albicans ATCC10231
[7] = Candida albicans, SC5314, 72 h, YNB with 2% potassium acetate, read-out: MIC
[8] = Candida albicans, ATCC10231, 72 h, ATCC10231, YNB with 2% glucose, 72 h, 28 °C, read-out: MIC
[9] = Candida albicans, ATCC10231, 72 h, ATCC10231, YNB with 2% potassium acetate, 72 h, 28 °C, read-out: MIC
[10] = Candida albicans, ATCC10231, Table 1: growth of C. albicans ATCC10231, read-out: MIC
[11] = YNB with 2% glucose, read-out: MIC
[12] = YNB with 2% potassium acetate, read-out: MIC

T1 sequence (Q9P8Q7 whole entry): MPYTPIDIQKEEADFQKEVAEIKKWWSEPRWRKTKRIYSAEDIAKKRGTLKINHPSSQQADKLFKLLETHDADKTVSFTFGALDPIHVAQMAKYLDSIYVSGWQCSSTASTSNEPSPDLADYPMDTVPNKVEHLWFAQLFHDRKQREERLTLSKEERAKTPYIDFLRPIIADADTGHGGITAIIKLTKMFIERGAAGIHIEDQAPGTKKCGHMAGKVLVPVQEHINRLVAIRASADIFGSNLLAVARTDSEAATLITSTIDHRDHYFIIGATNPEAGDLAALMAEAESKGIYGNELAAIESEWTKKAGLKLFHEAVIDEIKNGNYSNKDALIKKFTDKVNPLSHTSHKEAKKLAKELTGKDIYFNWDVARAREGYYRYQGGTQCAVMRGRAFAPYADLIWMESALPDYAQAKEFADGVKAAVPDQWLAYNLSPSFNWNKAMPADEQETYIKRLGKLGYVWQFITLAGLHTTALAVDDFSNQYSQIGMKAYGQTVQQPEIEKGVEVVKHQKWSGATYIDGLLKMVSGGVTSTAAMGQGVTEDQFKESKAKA

SMILES | IC50 [1] [µM] | inhibitory activity toward ICL (in words) [1] | MIC (C. albicans SC5314; [5]) [µg/mL] | MIC (C. albicans ATCC10231; [6]) [µg/mL] | MIC (C. albicans SC5314; [7]) [µg/mL] | MIC (C. albicans ATCC10231; [8]) [µg/mL] | MIC (C. albicans ATCC10231; [9]) [µg/mL] | MIC (C. albicans ATCC10231; [10]) [µg/mL] | further results
O=C(O)CC[N+](=O)[O-] [3-Nitropropionate, 3-nitropropionate, reference compound] | 21.8 ± 1.38 |  |  |  |  |  |  |  | MIC (C. albicans ATCC10231; Table 1: growth of C. albicans ATCC10231): >128 µg/mL
COc1ccc2cc1Oc1cc(ccc1O)C(O)C13SSSC4(C(=O)N1C)C(O)C1=COC=CC(OC2=O)C1N4C3=O (stereo not drawn) [Emestrin B (4), emestrin B] | > 203 | no inhibitory activity; also recorded: not inhibitors of ICL | > 128 | > 128 |  |  |  |  | 
COc1ccc2cc1Oc1cc(ccc1O)C(O)C13SSC4(C(=O)N1C)C(O)C1=COC=CC(OC2=O)C1N4C3=O (stereo not drawn) [Emestrin (3), emestrin] | > 214 | not inhibitors of ICL | > 128 | > 128 |  |  |  |  | inhibitory activity toward ICL (in words) ([1]; listed as emestrin (3)): no inhibitory activity
COc1ccc(C(=O)O[C@H]2C=COC=C3[C@@H](O)[C@]45SSSS[C@H](C(=O)N4[C@@H]32)N(C)C5=O)cc1Oc1cc(C=O)ccc1O [Secoemestrin C (1), secoemestrin C] | 4.77 ± 0.08 |  | > 128 |  | 64 (≈ 96.6 µM) | > 128 | 64 (≈ 96.6 µM) | > 128 | reversibility of binding to the enzyme ([1]; enzyme activity not recovered by dialysis within 1 h): irreversible; ICL inhibition mechanism ([1]; kinetic analysis, Lineweaver–Burk plot): uncompetitive inhibitor; MIC (C. albicans SC5314; YNB with 2% glucose, 72 h): >128 µg/mL; MIC (C. albicans ATCC10259; YNB with 2% glucose): > 128 µg/mL; MIC (C. albicans ATCC10259; YNB with 2% potassium acetate): 32 µg/mL (≈ 48.3 µM); MIC (C. albicans ATCC11006; YNB with 2% glucose): > 128 µg/mL; MIC (C. albicans ATCC11006; YNB with 2% potassium acetate): 64 µg/mL (≈ 96.6 µM); MIC (C. albicans ATCC18804; YNB with 2% glucose): > 128 µg/mL; MIC (C. albicans ATCC18804; YNB with 2% potassium acetate): 64 µg/mL (≈ 96.6 µM); MIC [2]: 32 to 64 µg/mL (≈ 48.3 to 96.6 µM); growth phenotype ([3]; 2% glucose plus 64 μg/mL compound, all strains): normal phenotypes; growth phenotype ([3]; 2% potassium acetate plus 64 μg/mL compound): failed to grow; also recorded: no growth; intensity of the PCR band corresponding to the ICL product (ICL mRNA) [4]: decreased
COc1ccc(C(=O)O[C@H]2C=COC=C3C=C4C(=O)N(C)C(=O)C(=O)N4[C@@H]32)cc1Oc1cc(C=O)ccc1O [Dethiosecoemestrin (2), dethiosecoemestrin] | > 241 | no inhibitory activity | > 128 |  |  |  |  | > 128 | 
C[C@@H]1[C@H](O)[C@@H](C)/C=C/C=C/C=C/C=C/C=C/C=C/C=C/[C@H](O[C@@H]2O[C@H](C)[C@@H](O)[C@H](N)[C@@H]2O)C[C@@H]2O[C@](O)(C[C@@H](O)C[C@@H](O)[C@H](O)CC[C@@H](O)C[C@@H](O)CC(=O)O[C@H]1C)C[C@H](O)[C@H]2C(=O)O [Amphotericin B, amphotericin B, reference compound] |  |  | 0.5 (≈ 0.541 µM) |  | 0.5 (≈ 0.541 µM) | 0.5 (≈ 0.541 µM) | 0.5 (≈ 0.541 µM) | 0.5 (≈ 0.541 µM) | MIC (C. albicans ATCC10259; [11]): 1 µg/mL (≈ 1.08 µM); MIC (C. albicans ATCC10259; [12]): 0.5 µg/mL (≈ 0.541 µM); MIC (C. albicans ATCC11006; [11]): 0.5 µg/mL (≈ 0.541 µM); MIC (C. albicans ATCC11006; [12]): 0.5 µg/mL (≈ 0.541 µM); MIC (C. albicans ATCC18804; [11]): 1 µg/mL (≈ 1.08 µM); MIC (C. albicans ATCC18804; [12]): 1 µg/mL (≈ 1.08 µM)
